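Cells were grown in 96-well plates and exposed to each compound for 48 hours at five concentrations; endpoints were interpolated linearly between bracketing concentrations, or set to the highest concentration if not reached. GI50 is the concentration that inhibits growth by half.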 Calls of active or inactive are those of the source. Cut-off read from the data, not from the text of the source: active = GI50 up to about 1.1 µM and inactive = higher.
Key:
Assay in all cases: NCI tumour cell line growth inhibition, 48 h
SK-MEL-5 = tested on: SK-MEL-5
OVCAR-4 = tested on: OVCAR-4
CAKI-1 = tested on: CAKI-1
CCRF-CEM = tested on: CCRF-CEM
UACC-257 = tested on: UACC-257
HOP-62 = tested on: HOP-62
HCT-15 = tested on: HCT-15
SNB-19 = tested on: SNB-19
SW-620 = tested on: SW-620
M14 = tested on: M14
UACC-62 = tested on: UACC-62
SF-268 = tested on: SF-268
HT-29 = tested on: HT-29
786-0 = tested on: 786-0
SK-OV-3 = tested on: SK-OV-3
KM12 = tested on: KM12
IGROV-1 = tested on: IGROV-1
K562 = tested on: K562
RXF 393 = tested on: RXF 393
OVCAR-3 = tested on: OVCAR-3

Compound	GI50 (SK-MEL-5)	GI50 (OVCAR-4)	GI50 (CAKI-1)	GI50 (CCRF-CEM)	GI50 (UACC-257)	GI50 (HOP-62)	GI50 (HCT-15)	GI50 (SNB-19)	GI50 (SW-620)	GI50 (M14)	GI50 (UACC-62)	GI50 (SF-268)	GI50 (HT-29)	GI50 (786-0)	GI50 (SK-OV-3)	GI50 (KM12)	GI50 (IGROV-1)	GI50 (K562)	GI50 (RXF 393)	GI50 (OVCAR-3)
CC(=O)OC1COC(N2CCc3ccccc32)C(OC(C)=O)C1OC(C)=O (stereo not given)	> 100 µM (inactive)	> 100 µM (inactive)	> 100 µM (inactive)	> 100 µM (inactive)	> 100 µM (inactive)	> 100 µM (inactive)	> 100 µM	> 100 µM (inactive)	> 100 µM (inactive)	> 100 µM (inactive)	> 94.6 µM (inactive)	> 100 µM (inactive)	> 100 µM (inactive)	> 100 µM (inactive)	> 100 µM (inactive)	> 100 µM (inactive)	> 100 µM (inactive)	> 100 µM (inactive)	> 100 µM (inactive)	> 100 µM (inactive)
CCN1c2ccccc2-c2c3c1cc(C)cc3c1ccccc1[n+]2CC	0.52 µM (active)	1.57 µM (inactive)	2.26 µM (inactive)	0.621 µM (active)	0.437 µM (active)	2.04 µM (inactive)	6.22 µM	0.528 µM (active)	1.11 µM (active)	1.69 µM (inactive)	0.743 µM (active)	0.522 µM (active)	1.41 µM (inactive)	1.59 µM (inactive)	1.83 µM (inactive)	0.339 µM (active)	1.66 µM (inactive)	0.323 µM (active)	2.96 µM (inactive)	0.476 µM (active)
CN(C)c1ccc(/C=C2\Oc3ccccc3C2=O)cc1	> 100 µM (inactive)	> 100 µM (inactive)	> 100 µM (inactive)	> 100 µM (inactive)	> 100 µM (inactive)	> 100 µM (inactive)	> 100 µM	> 100 µM (inactive)	> 100 µM (inactive)	> 100 µM (inactive)	> 100 µM (inactive)	> 100 µM (inactive)	> 100 µM (inactive)	> 100 µM (inactive)	> 100 µM (inactive)	> 100 µM (inactive)	> 100 µM (inactive)	21.5 µM (inactive)	> 100 µM (inactive)	> 100 µM (inactive)
CCCCCCCCCCCCCCCCCCNc1ccn(C2OC(COP(=O)(O)OCC3OC(n4ccc(N)nc4=O)C(O)C3O)C(O)C2O)c(=O)n1 (stereo not given)	> 100 µM (inactive)	> 72.8 µM (inactive)	67.6 µM (inactive)	16.1 µM (inactive)	> 100 µM (inactive)	29.6 µM (inactive)	55.6 µM	39.7 µM (inactive)	> 89.7 µM (inactive)	32 µM (inactive)	> 93.3 µM (inactive)	63.8 µM (inactive)	37.7 µM (inactive)	44.7 µM (inactive)	> 86.9 µM (inactive)	> 89.1 µM (inactive)	30.3 µM (inactive)	65.8 µM (inactive)	> 100 µM (inactive)	> 100 µM (inactive)
Oc1ccc(/C=N/c2ccccc2O)cc1	20.2 µM (inactive)	> 100 µM (inactive)	68.1 µM (inactive)	44.7 µM (inactive)	22.3 µM (inactive)	67 µM (inactive)	21.3 µM	> 100 µM (inactive)	31.3 µM (inactive)	35.5 µM (inactive)	37.5 µM (inactive)	96.6 µM (inactive)	69 µM (inactive)	23.3 µM (inactive)	> 100 µM (inactive)	75.3 µM (inactive)	54.7 µM (inactive)	24.7 µM (inactive)	> 100 µM (inactive)	40 µM (inactive)
O=C1C(Cl)C(c2ccccc2Cl)N1n1cnc2ccccc2c1=O (stereo not given)	> 100 µM (inactive)	> 100 µM (inactive)	47.6 µM (inactive)	45.8 µM (inactive)	37.2 µM (inactive)	16.3 µM (inactive)	72.6 µM	22.5 µM (inactive)	31.9 µM (inactive)	94 µM (inactive)	21.6 µM (inactive)	54.5 µM (inactive)	> 100 µM (inactive)	75.7 µM (inactive)	24.2 µM (inactive)	> 100 µM (inactive)	80.4 µM (inactive)	18.7 µM (inactive)	17.5 µM (inactive)	> 100 µM (inactive)
O=S(=O)(O)c1cc(/N=N/c2c(O)ccc3ccccc23)cc2c(S(=O)(=O)O)cccc12	> 100 µM (inactive)	> 100 µM (inactive)	> 100 µM (inactive)	> 100 µM (inactive)	> 100 µM (inactive)	> 100 µM (inactive)	> 100 µM	> 100 µM (inactive)	> 100 µM (inactive)	> 100 µM (inactive)	> 100 µM (inactive)	> 100 µM (inactive)	> 100 µM (inactive)	> 100 µM (inactive)	> 100 µM (inactive)	> 100 µM (inactive)	> 100 µM (inactive)	> 100 µM (inactive)	> 100 µM (inactive)	> 100 µM (inactive)

From ChEMBL document CHEMBL1201862, “PubChem BioAssay data set” (2004)
